# Source: PMC9569450, “Dual Effect of Tryptamine on Prostate Cancer Cell Growth Regulation: A Pilot Study” (International Journal of Molecular Sciences, 2022)
# Read-outs that look alike come from different tables or passages of the source.
# Assays:
# PC-3 cells = assay: MTT cell proliferation assay, PC-3; assay type: cell-based, human; conditions: read-out: IC50 Value (Mean ± SD mM) PC-3
# Experimental: (§1) PC-3, LNCaP, RWPE-1, HepG2, A549, and PANC-1 cells were purchased from the National Collection of Authenticated Cell Cultures (Shanghai, China). […] All the above cell cultures were supplied with 10% fetal bovine serum and 1% penicillin-streptomycin. RWPE-1 cells were cultured in keratinocyte serum-free medium (K-SFM, Gibco, New York, NY, USA) supplemented with 50 mg/L bovine pituitary extract and 5 μg/L epidermal growth factor (EGF). All cell lines were grown in a humidified atmosphere of 5% CO2 at 37 °C.
# (§2) Cells were seeded in 100 μL complete medium in a 96-well plate, at a density of 10,000 cells/well for LNCaP and 5000 cells/well for other cells. Cells were pre-incubated for 24 h to allow for adherence before removal of complete medium and treatment with various concentrations of compounds in fetal bovine serum (FBS)-free medium for 48 h. After treatment, 20 μL/well MTT (5 mg/mL) was added and incubated for 3–4 h at 37 °C, and then 100 μL/well DMSO was added for MTT assay. The plate was shaken on an orbital shaker for 10 min. Absorbance was measured using a microplate reader at 492 nm for the MTT assay (performed in triplicates). Cell viability was normalized to control. Half inhibitory concentration (IC50) was calculated by SPSS Statistics 17.0. […] The experiments were independently repeated two to three times.
# A549 cells = assay: MTT cell proliferation assay, A549; assay type: cell-based; conditions: read-out: IC50 Value (Mean ± SD mM) A549
# Experimental: as §1, §2
# HepG2 cells = assay: MTT cell proliferation assay, HepG2; assay type: cell-based; conditions: read-out: IC50 Value (Mean ± SD mM) HepG2
# Experimental: as §1, §2
# PANC-1 cells = assay: MTT cell proliferation assay, PANC-1; assay type: cell-based; conditions: read-out: IC50 Value (Mean ± SD mM) PANC-1
# Experimental: as §1, §2
# LNCaP cells = assay: MTT cell proliferation assay, LNCaP; assay type: cell-based; conditions: 48 h treatment in FBS-free medium, read-out: IC50 Value (Mean ± SD mM) LNCaP
# Experimental: as §1, §2
# RWPE-1 cells = assay: MTT cell proliferation assay, RWPE-1; assay type: cell-based; conditions: for IC50: MTT, 48 h treatment in FBS-free medium, read-out: IC50 Value (Mean ± SD mM) RWPE-1
# Experimental: as §1, §2
# PC-3 and LNCaP cells = assay: MTT cell proliferation assay, PCa cell lines; assay type: cell-based; conditions: Homo sapiens, read-out: IC50 values on PCa cell lines
# Experimental: (§3) PC-3, LNCaP, RWPE-1, HepG2, A549, and PANC-1 cells were purchased from the National Collection of Authenticated Cell Cultures (Shanghai, China). PC-3 and A549 cells were cultured in F-12K Nutrient Mixture (Gibco, New York, NY, USA), LNCaP in RPMI 1640 (Gibco, New York, NY, USA), PANC-1 in Dulbecco’s Modified Eagle Medium (DMEM, Gibco, New York, NY, USA), and HepG2 in minimal essential medium (MEM, Gibco, New York, NY, USA). All the above cell cultures were supplied with 10% fetal bovine serum and 1% penicillin-streptomycin. RWPE-1 cells were cultured in keratinocyte serum-free medium (K-SFM, Gibco, New York, NY, USA) supplemented with 50 mg/L bovine pituitary extract and 5 μg/L epidermal growth factor (EGF). All cell lines were grown in a humidified atmosphere of 5% CO2 at 37 °C.
# (§4) Cells were seeded in 100 μL complete medium in a 96-well plate, at a density of 10,000 cells/well for LNCaP and 5000 cells/well for other cells. Cells were pre-incubated for 24 h to allow for adherence before removal of complete medium and treatment with various concentrations of compounds in fetal bovine serum (FBS)-free medium for 48 h. After treatment, 20 μL/well MTT (5 mg/mL) was added and incubated for 3–4 h at 37 °C, and then 100 μL/well DMSO was added for MTT assay. The plate was shaken on an orbital shaker for 10 min. Absorbance was measured using a microplate reader at 492 nm for the MTT assay (performed in triplicates). Cell viability was normalized to control. Half inhibitory concentration (IC50) was calculated by SPSS Statistics 17.0. The combination index (CI) isobologram equation was used for the quantitative determination of the interaction between two compounds [62]:(1) Combination index CI =CA,x/ICx,A+CB,x/ICx,B where CA,x and CB,x are compound concentrations that […], and ICx,A and ICx,B are compound concentrations that provide the same effect when being used in combination. The experiments were independently repeated two to three times.
# [1] = test system: human castration-resistant PCa cells DU145 and PC3; parameters: method as in PMID 33945018; conditions: cited from earlier work
# [2] = test system: PC-3, LNCaP, RWPE-1, A549, PANC-1, and HepG2 cells; assay: MTT cell proliferation assay, all cell lines; assay type: cell-based
# Experimental: as §3, §4
# [3] = test system: A549, HepG2, and PANC-1 cells; assay: MTT cell proliferation assay, other three cancer cell lines; assay type: cell-based; conditions: A549, HepG2, and PANC-1, text summary
# Experimental: as §1, §2
# PC-3 xenograft tumors = assay: PC-3 xenograft mouse model; assay type: in vivo; conditions: 200 mg/kg
# Experimental: Five-week-old male BALB/c nude mice were purchased from Charles River Laboratories (Beijing, China) and raised in a temperature and humidity-controlled environment (25 ± 2 °C, 50% ± 10% humidity) with a standard 12 h light-dark cycle with food and water in cages under germ-free conditions (SCXK2021-0006). All procedures involving animals and their care were approved by the Institutional Animal Care and Use Committee of the Ocean University of China in accordance with institutional and National Institutes of Health guidelines (OUC-SMP-2022-01-01). PC-3 cells (4 × 10^6 dissolved in 150 μL PBS) were injected subcutaneously into the armpit area of each mouse. For the first treatment group, when tumors reached 50 mm^3, 80 mg/kg of tryptamine dissolved in normal saline with 0.1% formic acid was administered intraperitoneally once every other day for 32 days (n = 6). […] The control groups were administrated with the vehicle. The tumor volume (mm^3) was calculated based on the formula:(2) Tumor volume (mm^3)=length×width^2/2
# ovarian cancer = test system: ovarian cancer; parameters: method as in PMID 27121207; conditions: intraperitoneal injections of 10 mg/kg; cited from earlier work
# [4] = Homo sapiens, PC-3, 48 h treatment in FBS-free medium
# [5] = Homo sapiens, A549, 48 h treatment in FBS-free medium
# [6] = Homo sapiens, HepG2, 48 h treatment in FBS-free medium
# [7] = Homo sapiens, PANC-1, 48 h treatment in FBS-free medium
# [8] = discussion summary, all cancer cell lines tested, read-out: IC50 values in all cancer cell lines tested
# [9] = all cell lines tested, read-out: IC50 values for all six cell lines tested
# [10] = 48 h treatment in FBS-free medium
Compound,IC50 (PC-3 cells; [4]) [mM],IC50 (A549 cells; [5]) [mM],IC50 (HepG2 cells; [6]) [mM],IC50 (PANC-1 cells; [7]) [mM],"IC50 (LNCaP cells; Homo sapiens, LNCaP) [mM]","IC50 (RWPE-1 cells; Homo sapiens, RWPE-1) [mM]","IC50 [2, 9] [µM]",also measured
"COc1cc([C@@H]2c3cc4c(cc3[C@@H](O[C@@H]3O[C@@H]5CO[C@@H](C)O[C@H]5[C@H](O)[C@H]3O)[C@H]3COC(=O)[C@H]23)OCO4)cc(OC)c1O [Etoposide, reference compound]",0.064 ± 0.001,0.041 ± 0.002,0.03 ± 0.001,0.042 ± 0.001,0.032 ± 0.001,0.016 ± 0.001,–,–
O=C(O)c1ccccn1 [Picolinic acid],4.95 ± 0.19,–,–,–,5.75,1.48 ± 0.06,–,–
"O=C(O)c1cc(=O)c2ccccc2[nH]1 [KYNA, kynurenic acid]",8.76 ± 1.18,–,–,–,9.74 ± 1.3,4.39 ± 0.1,–,"IC50 (PC-3 and LNCaP cells; PC-3 and LNCaP): > 5000 µM; effect on DU145 and PC3 cells [1]: scarce or no effect; IC50 [2, 8]: > 3000 µM"
"NCCc1ccc(O)cc1 [Tyramine, reference compound]",1.53 ± 0.04,3.18 ± 0.24,1.53 ± 0.05,0.77 ± 0.04,1.71 ± 0.12,2.99 ± 0.08,–,–
c1ccc2[nH]ccc2c1 [Indole],0.7 ± 0.02,–,–,–,0.98 ± 0.02,0.9 ± 0.06,–,–
COc1ccc2[nH]cc(CCNC(C)=O)c2c1 [Melatonin],1.28 ± 0.06,2.31 ± 0.06,1.48 ± 0.1,2.02 ± 0.09,1.25 ± 0.12,1.47 ± 0.1,≥ 1000,–
N[C@@H](Cc1c[nH]c2ccccc12)C(=O)O [Tryptophan],1.89 ± 0.13,1.5 ± 0.15,1.54 ± 0.04,4.54 ± 0.19,6.51 ± 0.29,0.76 ± 0.03,–,IC50 (PC-3 and LNCaP cells; LNCaP): 1900 to 6500 µM; IC50 [3]: 1500 to 4500 µM
"N[C@@H](Cc1c[nH]c2ccc(O)cc12)C(=O)O [5-HTP, 5-hydroxytryptophan]",0.99 ± 0.04,–,–,–,1.8 ± 0.17,0.85 ± 0.05,–,–
"Nc1c(O)cccc1C(=O)CC(N)C(=O)O (centres unmarked) [3-HK, 3-hydroxykynurenine]",–,–,–,–,–,–,≤ 900,IC50 (PC-3 cells; [10]): 0.55 ± 0.01 mM; IC50 (A549 cells; [10]): 0.29 ± 0.01 mM; IC50 (HepG2 cells; [10]): 0.25 ± 0.01 mM; IC50 (PANC-1 cells; [10]): 0.25 ± 0.01 mM; IC50 (LNCaP cells): 0.29 ± 0.01 mM; IC50 (RWPE-1 cells): 0.36 ± 0.01 mM
"O=C(O)c1cccnc1C(=O)O [QA, quinolinic acid]",6 ± 1.32,–,–,–,6.83 ± 0.42,3.2 ± 0.16,–,"IC50 (PC-3 and LNCaP cells; PC-3 and LNCaP): > 5000 µM; IC50 [2, 8]: > 3000 µM"
"Nc1c(O)cccc1C(=O)O [3-HAA, 3-hydroxyanthranilic acid]",0.9 ± 0.04,0.27 ± 0.01,0.42 ± 0.02,0.41 ± 0.01,0.65 ± 0.06,0.38 ± 0.01,≤ 900,tumor size (PC-3 xenograft tumors; intraperitoneal administration): No difference in tumor size; tumor size (PC-3 xenograft tumors; intratumoral administration): No difference in tumor size; Effect on proliferation of RWPE-1 cells (RWPE-1 cells; concentrations between 0.03 and 0.1 mM): promoted the proliferation
"Nc1c(C(=O)O)c2nc3c(C(=O)O)cccc3oc-2cc1=O [CA, cinnabarinic acid]",0.17 ± 0.01,0.21 ± 0.01,0.1 ± 0.01,0.25 ± 0.04,0.24 ± 0.01,0.4 ± 0.01,≤ 900,–
"NCCc1ccccc1 [β-phenylethylamine, reference compound]",–,–,–,–,–,–,–,IC50 (PC-3 cells; [10]): 0.44 ± 0.01 mM; IC50 (A549 cells; [10]): 0.72 ± 0.06 mM; IC50 (HepG2 cells; [10]): 1.01 ± 0.03 mM; IC50 (PANC-1 cells; [10]): 1.47 ± 0.07 mM; IC50 (LNCaP cells): 0.69 ± 0.06 mM; IC50 (RWPE-1 cells): 2.51 ± 0.19 mM
"Nc1ccccc1C(=O)CC(N)C(=O)O (centres unmarked) [Kynurenine, kynurenine]",2.02 ± 0.05,2.46 ± 0.05,1.93 ± 0.03,2.63 ± 0.04,1.78 ± 0.18,2.79 ± 0.05,≥ 1000,–
"NCCc1c[nH]c2ccc(O)cc12 [5-HT, 5-hydroxytryptamine]",1.07 ± 0.03,1.89 ± 0.09,1.05 ± 0.17,1.34 ± 0.13,1.12 ± 0.04,1.66 ± 0.01,≥ 1000,tumor weight increase (ovarian cancer): ~60%
